Holding throughout (type): in vivo
One assay relates to Myzus persicae. Nature of the assay: Insecticidal test, Myzus persicae (aphids), contact. The settings on record: 72 h, Chinese Cabbage leaf, 3 days, read-out: grading of mortality, MP. On the procedure: (§1) The activity of the Product was determined using a variety of insect and acarine pests. The Product was used in the form of liquid preparations containing 500, 250 or 100 parts per million (ppm) by weight of the Product. The preparations were made by dissolving the Product in acetone and diluting the solutions with water containing 0.01% by weight of a wetting agent sold under the trade name "LISSAPOL" NX until the liquid preparations contained the required concentratio of the Product. "Lissapol" is a Registered Trade Mark.
(§2) The test procedure adopted with regard to each pest was basically the same and comprised supporting a number of the pests on a medium which was usually a host plant or a foodstuff on which the pests feed, and treating either or both the pests and the medium with the preparations. The mortality of the pests was then assessed at periods usually varying from one to three days after the treatment.
(§3) The results of the tests are given in Table IV for each of the Products, at the rate in parts per million given in the second column as a grading of mortality designated as A, B or C wherein A indicates 80-100% mortality or knockdown (70-100% in the case of Spodoptera exigua), B indicates 50-79% mortality or knockdown (50-69% in the case of Spodoptera exigua) and C indicates less than 50% mortality or knockdown.
(§4) In Table IV the pest organism used is designated by a letter code and the pest species, the support medium or food, and the type and duration of test is given in Table III.

For assay [1], the system named is Musca domestica. Nature of the assay: Knockdown test, Musca domestica (houseflies - adults). The settings on record: cotton wool/sugar, 4 hours, read-out: grading of knockdown, MD/KD. The protocol:
as §1, §2
In the case of the species Musca domestica (housefly), additional tests to determine the knockdown effect of the compounds were performed.
as §3, §4

Another assay deals with Tetranychus urticae. Nature of the assay: Insecticidal/acaricidal test, Tetranychus urticae (spider mites - adult), contact. To be noted: 72 h, French bean leaf, 3 days, read-out: grading of mortality, TU. On the procedure: as §1, §2, §3, §4
A further assay has as its system Heliothis virescens. Nature of the assay: whole plant or invertebrate. The settings on record: in Gossypium hirsutum, 72 h, read-out: grading of mortality, HV. The protocol: as §1, §2, §3, §4
The test system of another assay is Nilaparvata lugens. Nature of the assay: Insecticidal test, Nilaparvata lugens (brown planthopper), contact. The settings on record: 72 h, Cabbage leaf, 3 days, read-out: grading of mortality, NL. On the procedure: as §1, §2, §3, §4
A further assay deals with Blattella germanica. Nature of the assay: Insecticidal test, Blattella germanica (cockroach nymphs), residual. The settings on record: 72 h, plastic pot, 3 days, read-out: grading of mortality, BG. The protocol:
as §1, §2, §3, §4

For assay [2], the system named is Musca domestica. Nature of the assay: Insecticidal test, Musca domestica (houseflies - adults), contact. To be noted: 24 h, cotton wool/sugar, 1 day, read-out: grading of mortality, MD. On the procedure: as §1, §2, §3, §4
The subject of another assay is Diabrotica balteata. Nature of the assay: Insecticidal test, Diabrotica balteata (rootworm larvae), residual. To be noted: 72 h, filter paper/maize seed, 3 days, read-out: grading of mortality, DB. On the procedure: as §1, §2, §3, §4

Where only a bound is given, the exact number is not on record here.

Usually mortality stands for the percentage killed. Turning to `FC(F)(F)Oc1ccc(C(Cl)(COCc2cccc(Oc3ccccc3)c2)C(F)(F)F)cc1` (centres unmarked) [Compound 59, 1,1,1-Trifluoro-2-chloro-2-(4-trifluoromethoxyphenyl)-3-(3-phenoxybenzyloxy)propane], the mortality at 100 ppm in the assay with Myzus persicae was less than 50%; with Tetranychus urticae (100 ppm), 80 to 100%; in the assay on Heliothis virescens it was 80 to 100%; with Nilaparvata lugens, 80 to 100%; with Blattella germanica, 80 to 100%; in the assay with Musca domestica [2], 80 to 100%. Besides, the mortality at 100 ppm in the assay on Diabrotica balteata lay within 80 to 100%. Besides, the pest or weed control at 100 ppm in the assay on Musca domestica [1] was in the range of 80 to 100%.

With `CCOc1ccc(C(Cl)(COCc2c(F)c(F)c(C)c(F)c2F)C(F)(F)F)cc1` (centres unmarked) [Compound 39, 1,1,1-Trifluoro-2-chloro-2-(4-ethoxyphenyl)-3-(4-methyl-2,3,5,6-tetrafluorobenzyloxy)propane], the mortality at 250 ppm in the assay with Myzus persicae is less than 50%; with Heliothis virescens, less than 50%; with Nilaparvata lugens, 80 to 100%; in the assay with Blattella germanica, less than 50%; with Musca domestica [2], less than 50%; with Diabrotica balteata, less than 50%. The pest or weed control at 250 ppm in the assay on Musca domestica [1] was less than 50%.

Consider `CCOc1ccc(C(F)(COCc2cccc(Oc3ccccc3)c2)C(F)(F)F)cc1` (centres unmarked) [Compound 75, 1,1,1,2-tetrafluoro-2-(4-ethoxyphenyl)-3-(3-phenoxybenzyloxy)propane], for which the mortality at 100 ppm was 50 to 79% in the assay on Myzus persicae; less than 50% with Heliothis virescens; 80 to 100% in the assay with Nilaparvata lugens; less than 50% with Blattella germanica; 50 to 79% in the assay with Musca domestica [2]; 80 to 100% in the assay on Diabrotica balteata. Moreover, the pest or weed control at 100 ppm with Musca domestica [1] is 80 to 100%.

For the molecule `CCOc1ccc(C(COCc2ccc(F)c(Oc3ccccc3)c2)(OC(C)=O)C(F)(F)F)cc1` (centres unmarked) [Compound 149, 1,1,1-trifluoro-2-acetoxy-2-(4-ethoxyphenyl)-3-(3-phenoxy-4-fluorobenzyloxy)propane], the mortality at 250 ppm in the assay with Myzus persicae was less than 50%; with Heliothis virescens, 50 to 79%; in the assay with Nilaparvata lugens, 50 to 79%; with Blattella germanica it was less than 50%; in the assay on Musca domestica [2] it was less than 50%; in the assay with Diabrotica balteata, less than 50%. Also, the pest or weed control at 250 ppm with Musca domestica [1] was less than 50%.

`CCOc1ccc(C(O)(COCc2cccc(Oc3ccccc3)n2)C(F)(F)F)cc1` (centres unmarked) [Compound 141, 1,1,1-trifluoro-2-(4-ethoxyphenyl)-3-(6-phenoxy-2-pyridylmethyloxy)propan-2-ol]: the mortality at 500 ppm with Myzus persicae was less than 50%; with Heliothis virescens it was 80 to 100%; in the assay with Nilaparvata lugens, 50 to 79%; in the assay with Blattella germanica, less than 50%; with Musca domestica [2], 80 to 100%; in the assay with Diabrotica balteata it was 50 to 79%. In addition, the pest or weed control at 500 ppm in the assay on Musca domestica [1] is 80 to 100%.

For `CCOc1ccc(C(COCc2cccc(Oc3ccccc3)n2)C(F)(F)F)cc1` (centres unmarked) [Compound 4, 1,1,1-Trifluoro-2-(4-ethoxyphenyl)-3-(6-phenoxy-2-pyridylmethyloxy)propane], the mortality at 100 ppm in the assay with Myzus persicae, in the assay on Heliothis virescens, in the assay with Nilaparvata lugens, with Blattella germanica, in the assay on Musca domestica [2] and in the assay on Diabrotica balteata was 80 to 100% each time. In addition, the pest or weed control at 100 ppm in the assay on Musca domestica [1] was in the range of 80 to 100%.

Regarding `CCOc1ccc(C(F)(COCc2c(F)c(F)c(C)c(F)c2F)C(F)(F)F)cc1` (centres unmarked) [Compound 78, 1,1,1,2-Tetrafluoro-2-(4-ethoxyphenyl)-3-(4-methyl-2,3,5,6-tetrafluorobenzyloxy)propane], the mortality at 250 ppm in the assay with Myzus persicae was less than 50%; with Heliothis virescens, 80 to 100%; with Nilaparvata lugens, 80 to 100%; in the assay on Blattella germanica it was 80 to 100%; in the assay on Musca domestica [2], less than 50%; with Diabrotica balteata, 80 to 100%. The pest or weed control at 250 ppm in the assay on Musca domestica [1] was less than 50%.

On to `Fc1ccc(COCC(F)(c2ccc(Cl)cc2)C(F)(F)F)cc1Oc1ccccc1` (centres unmarked) [Compound 81, 1,1,1,2-tetrafluoro-2-(4-chlorophenyl)-3-(3-phenoxy-4-fluorobenzyloxy)propane], for which the mortality at 500 ppm was 80 to 100% with Myzus persicae; less than 50% in the assay with Tetranychus urticae; 80 to 100% in the assay with Nilaparvata lugens; 80 to 100% in the assay on Blattella germanica; 80 to 100% in the assay on Musca domestica [2]; 80 to 100% with Diabrotica balteata. Besides, the pest or weed control at 500 ppm with Musca domestica [1] lay in the range of 80 to 100%.

Take `Fc1ccc(COCC(c2ccc(Cl)cc2)C(F)(F)F)cc1Oc1ccccc1` (centres unmarked) [Compound 15]: the mortality at 500 ppm with Myzus persicae, in the assay with Tetranychus urticae, in the assay on Nilaparvata lugens, with Blattella germanica, in the assay on Musca domestica [2] and with Diabrotica balteata was 80 to 100% in each case. Also, the pest or weed control at 500 ppm in the assay on Musca domestica [1] lay within 80 to 100%.

Consider `CCOc1ccc(C(F)(COCc2cccc(Oc3ccccc3)n2)C(F)(F)F)cc1` (centres unmarked) [Compound 76, 1,1,1,2-Tetrafluoro-2-(4-ethoxyphenyl)-3-(6-phenoxy-2-pyridylmethyloxy)propane], for which the mortality at 500 ppm in the assay with Myzus persicae, in the assay with Heliothis virescens, in the assay on Nilaparvata lugens, with Blattella germanica, in the assay on Musca domestica [2] and with Diabrotica balteata was 80 to 100% in each case. Further, in the assay on Musca domestica [1], the pest or weed control at 500 ppm is 80 to 100%.

Turning to `CCOc1ccc(C(O)(COCc2ccc(F)c(Oc3ccc(Br)cc3)c2)C(F)(F)F)cc1` (centres unmarked) [Compound 116, 1,1,1-Trifluoro-2-(4-ethoxyphenyl)-3-(3-(4-bromophenoxy)-4-fluorobenzyloxy)propan-2-ol], the mortality at 500 ppm in the assay with Myzus persicae is less than 50%; in the assay with Tetranychus urticae it was 80 to 100%; in the assay with Nilaparvata lugens, less than 50%; in the assay on Blattella germanica, less than 50%; in the assay on Musca domestica [2], 50 to 79%; in the assay with Diabrotica balteata, less than 50%. The pest or weed control at 500 ppm in the assay with Musca domestica [1] is 50 to 79%.

As for `OC(COCc1ccc(F)c(Oc2ccccc2)c1)(c1ccc(Cl)cc1)C(F)(F)F` (centres unmarked) [Compound 126, 1,1,1-Trifluoro-2-(4-chlorophenyl)-3-(3-phenoxy-4-fluorobenzyloxy)propan-2-ol], the mortality at 500 ppm with Myzus persicae is less than 50%; in the assay with Tetranychus urticae, 80 to 100%; with Nilaparvata lugens it was less than 50%; in the assay on Blattella germanica it was less than 50%; in the assay on Musca domestica [2], less than 50%; in the assay with Diabrotica balteata, less than 50%. The pest or weed control at 500 ppm with Musca domestica [1] lay within 80 to 100%.

With `CCOc1ccc(C(Cl)(COCc2ccc(F)c(Oc3ccc(Br)cc3)c2)C(F)(F)F)cc1` (centres unmarked) [Compound 43, 1,1,1-Trifluoro-2-chloro-2-(4-ethoxyphenyl)-3-(3-(4-bromophenoxy)-4-fluorobenzyloxy)propane], the mortality at 500 ppm in the assay on Myzus persicae is 80 to 100%; in the assay with Tetranychus urticae, 50 to 79%; in the assay on Nilaparvata lugens, 80 to 100%; in the assay on Blattella germanica it was 50 to 79%; in the assay with Musca domestica [2], 80 to 100%; with Diabrotica balteata, less than 50%. In the assay on Musca domestica [1], the pest or weed control at 500 ppm fell in the range of 80 to 100%.

The values above are taken from patent US5225607A, “Insecticidal ethers” (Imperial Chemical Industries PLC, priority 1985, dated 1993).
